Laboratory results: patent US8999937B2, “Glucocorticoid induced leucine zipper mimetics as therapeutic agents in multiple sclerosis” (Indiana University Research and Technology Corporation, priority 2011, dated 2015)

Test system: CD4+ LNC from PLP primed SJL/J mice
Experiment: In vitro proliferation ([3H]-thymidine) of PLP139-151 restimulated CD4+ LNC from primed SJL/J mice
Format: cell-based, mouse
Settings: with Pep-1, PLP 40 μg/ml, 72 h
Experimental: CD4+ lymph node cells (LNC) isolated from the draining lymph nodes harvested from SJL/J mice 10 days after immunization with PLP139-151 were cultured in 96-well plates at […] in complete RPMI and restimulated with the PLP peptide (40 μg/ml) for 72 h, including a final 16-h pulse with [^3H]-thymidine. […] Separate cultures stimulated with ova (40 μg/ml) served as control for antigen specificity. Irradiated splenocytes from syngenic mice were used as antigen presenting cells (APC). Cultures were harvested onto glass fiber mats using a Skatron harvester (Skatron, Sterling, Va.), and the levels of [^3H]-thymidine incorporation were determined by liquid scintillation counting (Microbeta; Wallac, Turku, Finland). Results were confirmed by replicate experiments. Data are expressed as Δcpm (counts/min incorporated in antigen-stimulated culture-counts/min incorporated by control unstimulated culture).
Supernatants collected at 24 and 48 h were assessed for specific cytokines using the OptEIA kits (BD Biosciences). Proliferation assays included parallel cultures for 72 h with a final 18-h pulse with [^3H]thymidine measured by liquid scintillation counting (Microbeta, Turku, Finland).

Structure (SMILES): C[C@@H]1C[C@H]2[C@@H]3CCC4=CC(=O)C=C[C@]4(C)[C@@]3(F)[C@@H](O)C[C@]2(C)[C@@]1(O)C(=O)CO [dexamethasone, reference compound]
- proliferative response (Δcpm): 2226+/−327 cpm
